Measurements reported in patent US20240360150A1, “ISOINDOLINONE COMPOUNDS AND USES THEREOF” (HANGZHOU GLUBIO PHARMACEUTICAL CO. LTD., priority 2021, published 2024).
Where two headings read alike, the source gives them in different places.

Legend:
Format in all cases: cell-based
HiBiT-tagged SALL4 = target: T1, HiBiT-tagged SALL4 (Homo sapiens, UniProt Q96SW2+Q9UJQ4); test: Degradation assay for SALL4 (HiBiT tag bioluminescence assay)
T1 construct: expressed in transfected cells; host or cells: HT-1080 (ATCC CCL-121), lentiviral transduction
Procedure: (§1) About 10,000 cells in complete DMEM cell culture media were seeded per well. Assay plates were incubated at 37° C. with 5% CO2 for hours, followed by the assessment of IKZF1 or SALL4 degradation using the Nano-Glo HiBiT Lytic Detection Reagent (Cat #N3050, Promega) according to the manufacturer's instruction. Luminescence was then measured with an EnVision plate reader (PerkinElmer) or a PHERAstar plate reader (BMG Labtech). All IKZF1 or SALL4 degradation curves were processed using Collaborative Drug Discovery Vault softwares. IKZF1 or SALL4 levels in compound-treated wells were normalized to that of DMSO control and expressed as Percent of Control (PoC, y). A four Parameter Logistic Model was used to determine the compound's EC50 and DC50, using the following equation:
(§2) A=Ymin (lowest IKZF1 or SALL4 level normalized to DMSO control in response to compound treatment, as determined by curve fit)
(§3) B=Ymax (IKZF1 or SALL4 level in DMSO control)
(§4) C=EC50 half degradation concentration
(§5) EC50=the concentration of compound when y=(Ymax−Ymin)/2
(§6) DC50=test sample concentration when IKZF1 or SALL4 readings y=50% DMSO-treated samples
(§7) y=IKZF1 or SALL4 readings after test sample treatment (normalized to IKZF1 or SALL4 readings in DMSO-treated samples)
(§8) Dmax represents the maximum percentage of IKZF1 or SALL4 protein degradation induced by compound treatment.

HiBiT-tagged IKZF1 [1] = target: T2, HiBiT-tagged IKZF1 (Homo sapiens, UniProt Q13422+Q96SW2); test: Degradation assay for IKZF1 (HiBiT tag bioluminescence assay)
T2 construct: expressed in transfected cells; host or cells: HT-1080 (ATCC CCL-121), lentiviral transduction
Procedure: as §1, §2, §3, §4, §5, §6, §7, §8

HiBiT-tagged IKZF1 [2] = target: T2, HiBiT-tagged IKZF1; test: IKZF1 protein degradation kinetics (IKZF1 HiBiT degradation assay, incubation 1, 2 or 4 hours)
Source text: The following is a general method for testing compounds-induced degradation of HiBiT-tagged IKZF1 or SALL4 overexpressed in a human cell line, for example, the HT-1080 cell line (American Type Culture Collection (ATCC), catalog number CCL-121). The HT-1080 IKZF1 (or SALL4) HiBiT reporter cell line was engineered via lentiviral transduction to stably overexpress GSPT1 (Δ1-138)/G575N and HiBiT-tagged IKZF1 or SALL4. The HT-1080 IKZF1 (or SALL4) HiBiT reporter cell line was maintained in DMEM media supplemented with 10% fetal bovine serum, IX sodium pyruvate, 1× non-essential amino acids, IX glutamine, 100 U/ml penicillin, and 100 μg/mL streptomycin. The HT-1080 IKZF1 (or SALL4) HiBiT reporter cells were seeded into 384-well plates (Cat #3764, Corning) pre-spotted with DMSO or test compounds. Increasing concentrations of test compounds (ranging from 15.81 pM to 500 nM or from 0.3162 nM to 10 μM at a 3.162-fold increment) or DMSO were dispensed into an empty 384-well plate using an Echo 650 Acoustic Liquid Handler (Beckman Coulter). About 10,000 cells in complete DMEM cell culture media were seeded per well. Assay plates were incubated at 37° C. with 5% CO2 for hours, followed by the assessment of IKZF1 or SALL4 degradation using the Nano-Glo HiBiT Lytic Detection Reagent (Cat #N3050, Promega) according to the manufacturer's instruction. Luminescence was then measured with an EnVision plate reader (PerkinElmer) or a PHERAstar plate reader (BMG Labtech). All IKZF1 or SALL4 degradation curves were processed using Collaborative Drug Discovery Vault softwares. IKZF1 or SALL4 levels in compound-treated wells were normalized to that of DMSO control and expressed as Percent of Control (PoC, y). A four Parameter Logistic Model was used to determine the compound's EC50 and DC50, using the following equation: […]
The IKZF1 protein degradation kinetics of compounds 9-B and 9-A was evaluated using the IKZF1 HiBiT degradation assay as described above except that the incubation time was changed to 1, 2 or 4 hours.

MM.1S cells = test: MM.1S cell proliferation assay (CellTiter-Glo)
Procedure: About 3,000 cells in 50 μL of culture medium were seeded per well. Assay plates were incubated at 37° C. with 5% CO2 for 120 hours. After that, 20 μL of the CellTiter-Glo Luminescent Cell Viability Assay Reagent (Cat #G7573, Promega) was added to each well and incubated at room temperature for 30 minutes. Luminescence was then measured with an EnVision plate reader (PerkinElmer) or a PHERAstar plate reader (BMG LABTECH). All percentage of cell growth inhibition curves were processed using Collaborative Drug Discovery Vault softwares. Cell viability reads in compound-treated wells were normalized to that of DMSO control and expressed as Percent of Control (PoC, y). A four Parameter Logistic Model was used to determine the compound's EC50 and DC50, using the following equation:
[formula] • wherein, • A=Ymin (lowest cell viability read normalized to DMSO control in response to compound treatment, as determined by curve fit) • B=Ymax (the maximum value, cell viability read in DMSO control) • C=EC50 half inhibitory concentration • D=Hill Slope • x=compound concentration
as §5
y=cell viability read normalized to DMSO control

[3] = HT-1080, Table 2; HT-1080 SALL4 HiBiT reporter cells; all compounds tested on the same day
[4] = Table 2; HT-1080 SALL4 HiBiT reporter cells; all compounds tested on the same day; read-out: HiBiT SALL4: DC50
[5] = HT-1080, Table 2; HT-1080 IKZF1 HiBiT reporter cells; all compounds tested on the same day
[6] = Table 2; HT-1080 IKZF1 HiBiT reporter cells; all compounds tested on the same day; read-out: HiBiT IKZF1: DC50
[7] = HT-1080, Table 1; HT-1080 SALL4 HiBiT reporter cells; maximum percentage of protein degradation
[8] = Table 1; HT-1080 SALL4 HiBiT reporter cells; performed once with technical duplicates, some compounds tested on different days; read-out: HiBiT SALL4: DC50
[9] = HT-1080, Table 1; HT-1080 IKZF1 HiBiT reporter cells; maximum percentage of protein degradation
[10] = Table 1; HT-1080 IKZF1 HiBiT reporter cells; performed once with technical duplicates, some compounds tested on different days; read-out: HiBiT IKZF1: DC50
[11] = after 1 hour of compound incubation

T2 sequence (Q13422 whole entry): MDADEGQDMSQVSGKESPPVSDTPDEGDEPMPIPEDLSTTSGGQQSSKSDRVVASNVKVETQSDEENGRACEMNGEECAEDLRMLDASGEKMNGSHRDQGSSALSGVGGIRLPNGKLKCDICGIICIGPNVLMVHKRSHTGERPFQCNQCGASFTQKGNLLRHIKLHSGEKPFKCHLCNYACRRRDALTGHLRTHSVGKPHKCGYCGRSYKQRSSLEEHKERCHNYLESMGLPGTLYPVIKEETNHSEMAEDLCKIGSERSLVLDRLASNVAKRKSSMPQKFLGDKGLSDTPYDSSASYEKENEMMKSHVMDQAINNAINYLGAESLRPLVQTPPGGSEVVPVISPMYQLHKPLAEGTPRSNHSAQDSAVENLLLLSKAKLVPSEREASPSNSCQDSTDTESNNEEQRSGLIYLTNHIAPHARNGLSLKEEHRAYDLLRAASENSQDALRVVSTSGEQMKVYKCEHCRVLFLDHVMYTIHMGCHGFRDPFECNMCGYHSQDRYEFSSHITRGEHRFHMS
T2 sequence (Q96SW2 whole entry): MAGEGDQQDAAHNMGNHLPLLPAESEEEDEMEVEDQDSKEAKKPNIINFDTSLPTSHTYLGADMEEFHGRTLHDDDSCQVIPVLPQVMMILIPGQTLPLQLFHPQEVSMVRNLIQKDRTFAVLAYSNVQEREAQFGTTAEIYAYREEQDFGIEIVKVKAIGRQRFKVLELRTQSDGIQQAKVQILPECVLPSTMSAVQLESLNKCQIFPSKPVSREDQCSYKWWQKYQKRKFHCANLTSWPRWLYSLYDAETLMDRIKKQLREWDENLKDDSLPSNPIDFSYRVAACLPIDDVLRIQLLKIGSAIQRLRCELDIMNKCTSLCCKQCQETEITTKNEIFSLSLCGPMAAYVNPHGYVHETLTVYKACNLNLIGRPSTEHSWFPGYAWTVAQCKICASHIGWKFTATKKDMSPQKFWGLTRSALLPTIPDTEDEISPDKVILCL
T2 sequence (Q16531 whole entry partner): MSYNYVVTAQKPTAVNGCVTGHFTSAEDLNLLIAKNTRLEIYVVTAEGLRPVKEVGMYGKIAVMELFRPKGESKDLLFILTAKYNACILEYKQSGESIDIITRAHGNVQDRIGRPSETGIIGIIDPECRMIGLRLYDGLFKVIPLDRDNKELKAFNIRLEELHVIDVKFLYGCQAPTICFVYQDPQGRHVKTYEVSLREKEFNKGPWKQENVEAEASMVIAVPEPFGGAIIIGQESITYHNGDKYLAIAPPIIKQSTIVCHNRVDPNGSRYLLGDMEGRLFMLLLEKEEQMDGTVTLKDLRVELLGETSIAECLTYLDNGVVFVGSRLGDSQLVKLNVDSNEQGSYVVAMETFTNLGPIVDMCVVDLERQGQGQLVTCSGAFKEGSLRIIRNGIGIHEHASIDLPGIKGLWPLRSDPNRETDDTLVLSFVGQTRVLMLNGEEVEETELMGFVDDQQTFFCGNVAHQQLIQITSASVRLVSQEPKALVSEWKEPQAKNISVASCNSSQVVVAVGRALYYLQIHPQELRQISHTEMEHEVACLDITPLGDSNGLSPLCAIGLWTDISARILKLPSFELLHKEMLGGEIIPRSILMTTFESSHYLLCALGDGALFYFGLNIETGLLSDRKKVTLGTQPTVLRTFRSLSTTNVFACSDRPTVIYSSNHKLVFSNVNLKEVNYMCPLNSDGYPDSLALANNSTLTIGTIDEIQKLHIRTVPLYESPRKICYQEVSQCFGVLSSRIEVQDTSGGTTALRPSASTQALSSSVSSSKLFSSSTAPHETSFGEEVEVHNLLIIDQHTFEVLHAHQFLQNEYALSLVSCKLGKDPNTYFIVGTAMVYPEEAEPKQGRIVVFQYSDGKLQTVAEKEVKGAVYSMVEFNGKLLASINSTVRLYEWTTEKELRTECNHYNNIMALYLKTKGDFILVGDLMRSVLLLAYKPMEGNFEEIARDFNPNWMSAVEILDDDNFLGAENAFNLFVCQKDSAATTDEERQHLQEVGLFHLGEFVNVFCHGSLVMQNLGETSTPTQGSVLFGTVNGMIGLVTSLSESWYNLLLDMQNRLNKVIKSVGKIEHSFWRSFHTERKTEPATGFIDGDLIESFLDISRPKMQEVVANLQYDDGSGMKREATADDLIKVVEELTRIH
T1 sequence (Q9UJQ4 whole entry): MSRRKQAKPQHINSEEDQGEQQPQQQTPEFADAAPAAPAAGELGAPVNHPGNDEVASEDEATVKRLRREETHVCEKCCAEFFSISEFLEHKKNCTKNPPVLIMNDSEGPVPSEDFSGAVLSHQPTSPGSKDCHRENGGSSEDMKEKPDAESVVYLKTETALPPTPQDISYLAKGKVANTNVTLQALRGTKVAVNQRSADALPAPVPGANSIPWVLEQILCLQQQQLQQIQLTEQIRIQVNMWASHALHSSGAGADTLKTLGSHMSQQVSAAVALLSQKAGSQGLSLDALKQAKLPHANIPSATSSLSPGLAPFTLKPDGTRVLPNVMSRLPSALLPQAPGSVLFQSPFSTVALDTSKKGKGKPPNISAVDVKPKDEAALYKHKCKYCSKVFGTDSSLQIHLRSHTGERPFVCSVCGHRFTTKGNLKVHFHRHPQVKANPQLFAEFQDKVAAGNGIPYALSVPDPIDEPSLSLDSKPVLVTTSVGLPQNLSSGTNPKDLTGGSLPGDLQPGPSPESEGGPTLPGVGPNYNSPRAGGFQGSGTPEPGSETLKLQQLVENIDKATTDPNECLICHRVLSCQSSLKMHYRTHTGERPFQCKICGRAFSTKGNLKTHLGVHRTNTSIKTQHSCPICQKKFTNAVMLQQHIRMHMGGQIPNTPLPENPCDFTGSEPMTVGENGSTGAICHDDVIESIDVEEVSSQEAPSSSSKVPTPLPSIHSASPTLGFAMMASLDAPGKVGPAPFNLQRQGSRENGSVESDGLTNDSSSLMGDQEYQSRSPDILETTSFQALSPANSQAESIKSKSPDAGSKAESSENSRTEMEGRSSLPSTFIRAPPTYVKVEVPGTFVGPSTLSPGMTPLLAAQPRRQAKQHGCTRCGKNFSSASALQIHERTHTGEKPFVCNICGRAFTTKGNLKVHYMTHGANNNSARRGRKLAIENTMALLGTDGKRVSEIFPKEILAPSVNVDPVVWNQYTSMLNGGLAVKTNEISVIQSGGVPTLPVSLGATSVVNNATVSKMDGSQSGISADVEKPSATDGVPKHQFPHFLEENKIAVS
T1 sequence (Q96SW2 whole entry): as the sequence (Q96SW2 whole entry) above
T1 sequence (Q16531 whole entry partner): as the sequence (Q16531 whole entry partner) above

Dmax (HiBiT-tagged SALL4; [3]) [%]	DC50 (HiBiT-tagged SALL4; [4]) [nM]	Dmax (HiBiT-tagged IKZF1 [1]; [5]) [%]	DC50 (HiBiT-tagged IKZF1 [1]; [6]) [nM]	Dmax (HiBiT-tagged SALL4; [7]) [%]	DC50 (HiBiT-tagged SALL4; [8]) [nM]	Dmax (HiBiT-tagged IKZF1 [1]; [9]) [%]	DC50 (HiBiT-tagged IKZF1 [1]; [10]) [nM]	SMILES	further results
80.5	< 0.3	96.1	0.014	–	–	–	–	N#Cc1ccc(N2CCN(Cc3ccc(Cc4ccc5c6c(cccc46)C(=O)N5C4CCC(=O)NC4=O)c(F)c3)CC2)c(F)c1 (stereo not shown) [Compound 18]	–
–	–	–	–	68.6	1	93.5	0.026	N#Cc1cnc2c(c1)OC[C@H]1CN(Cc3ccc(Cc4ccc5c6c(cccc46)C(=O)N5C4CCC(=O)NC4=O)c(F)c3)CCN21 (stereo partly shown) [Compound 4]	–
–	–	–	–	53.2	400	91.8	0.022	N#Cc1ccc2c(c1)OC[C@H]1CN(Cc3ccc(Cc4ccc5c6c(cc(F)cc46)C(=O)N5C4CCC(=O)NC4=O)cn3)CCN21 (stereo partly shown) [Compound 2]	–
57	292	93.1	0.185	55.2	328	89.9	0.23	N#Cc1ccc(N2CCN(Cc3ccc(Cc4ccc5c6c(cc(F)cc46)C(=O)N5[C@@H]4CCC(=O)NC4=O)cc3)CC2)c(F)c1 (single isomer, unassigned) [Compound 9-A]	DC50 (HiBiT-tagged IKZF1 [2]; [11]): ~8 nM; Dmax (HiBiT-tagged IKZF1 [2]; [11]): ~68%; DC50 (HiBiT-tagged IKZF1 [2]; after 4 hours of incubation): 0.6 nM; Dmax (HiBiT-tagged IKZF1 [2]; after 4 hours of incubation): 88%
–	–	–	–	–	2	–	0.017	N#Cc1ccc2c(c1)OC[C@H]1CN(Cc3ccc(Cc4ccc5c6c(cccc46)C(=O)N5C4CCC(=O)NC4=O)cc3)CCN21 (stereo partly shown) [Compound 5]	HiBiT SALL4: Dmax (HiBiT-tagged SALL4; Table 1; HT-1080 SALL4 HiBiT reporter cells; maximum percentage of protein degradation): 76.5%; HiBiT IKZF1: Dmax (HiBiT-tagged IKZF1 [1]; Table 1; HT-1080 IKZF1 HiBiT reporter cells; maximum percentage of protein degradation): 94.1%
28.5	> 10000	60.1	39.1	–	–	–	–	N#Cc1ccc(N2CCN(Cc3ccc(Cc4ccc5c6c(c(F)ccc46)C(=O)N5C4CCC(=O)NC4=O)cc3)CC2)c(F)c1 (stereo not shown) [Compound 15]	–
–	–	–	–	34.9	> 10000	75.2	2.37	O=C1CCC(N2C(=O)c3cc(F)cc4c(Cc5ccc(CN6CCOCC6)cc5F)ccc2c34)C(=O)N1 (stereo not shown) [Compound 8]	–
–	–	–	–	33.7	> 10000	74.6	0.74	O=C1CCC(N2C(=O)c3cc(F)cc4c(Cc5ccc(CN6CC(N7CCOCC7)C6)cc5F)ccc2c34)C(=O)N1 (stereo not shown) [Compound 6]	–
79.3	< 0.3	96.9	0.014	–	–	–	–	N#Cc1ccc(N2CCN(Cc3ccc(Cc4ccc5c6c(cccc46)C(=O)N5C4CCC(=O)NC4=O)cc3)CC2)c(F)c1 (stereo not shown) [Compound 20]	–
–	–	–	–	57.4	117	93.2	0.025	N#Cc1ccc2c(c1)OC[C@H]1CN(Cc3ccc(Cc4ccc5c6c(cc(F)cc46)C(=O)N5C4CCC(=O)NC4=O)cc3)CCN21 (stereo partly shown) [Compound 1]	–
64.6	5.2	93.5	0.157	–	–	–	–	O=C1CCC(N2C(=O)c3cccc4c(Cc5ccc(CN6CCOCC6)cc5)ccc2c34)C(=O)N1 (stereo not shown) [Compound 19]	–
–	–	–	–	–	–	–	–	N#Cc1ccc(N2CCN(Cc3ccc(COc4cccc5c4CN([C@H]4CCC(=O)NC4=O)C5=O)cc3)CC2)c(F)c1 [CC-92480, reference compound]	Dmax (HiBiT-tagged SALL4; Table 2; HT-1080 SALL4 HiBiT reporter cells; all compounds tested on the same day): 75.8%; DC50 (HiBiT-tagged SALL4; read-out: HiBiT SALL4: DC50; Table 2; HT-1080 SALL4 HiBiT reporter cells; all compounds tested on the same day): 3.4 nM; IC50 (MM.1S cells; Homo sapiens, MM1.S, antiproliferative, 120 hours incubation, CellTiter-Glo, read-out: MM.1S: IC50): 0.041 nM; Ymin (MM.1S cells; lowest cell viability read normalized to DMSO control, MM.1S, 120 hours): 7.5 (n = 7) %; Dmax (HiBiT-tagged IKZF1 [1]; Table 2; HT-1080 IKZF1 HiBiT reporter cells; all compounds tested on the same day): 95.5%; DC50 (HiBiT-tagged IKZF1 [1]; read-out: HiBiT IKZF1: DC50; Table 2; HT-1080 IKZF1 HiBiT reporter cells; all compounds tested on the same day): 0.105 nM
–	–	–	–	32.5	> 10000	69.3	5.89	O=C1CCC(N2C(=O)c3cc(F)cc4c(Cc5ccc(CN6CCOCC6)cc5)ccc2c34)C(=O)N1 (stereo not shown) [Compound 12]	–
79.3	2	89.9	1	–	–	–	–	N#Cc1ccc(N2CCN(Cc3ccc(Cc4ccc5c6c(ccc(F)c46)C(=O)N5C4CCC(=O)NC4=O)cc3)CC2)c(F)c1 (stereo not shown) [Compound 14]	–
–	–	–	–	49.1	> 10000	87.3	1.22	CC(C)(C)N1CCN(Cc2ccc(Cc3ccc4c5c(cc(F)cc35)C(=O)N4C3CCC(=O)NC3=O)c(F)c2)CC1 (stereo not shown) [Compound 13]	–
–	–	–	–	68	2.4	93.3	0.038	N#Cc1ccc2c(c1)OC[C@H]1CN(Cc3ccc(Cc4ccc5c6c(cccc46)C(=O)N5C4CCC(=O)NC4=O)cc3)CCN21 (stereo partly shown) [Compound 3]	–
11.4	> 10000	41.1	> 10	–	–	–	–	N#Cc1ccc(N2CCN(Cc3ccc(Cc4ccc5c6c(cc(Cl)cc46)C(=O)N5C4CCC(=O)NC4=O)cc3)CC2)c(F)c1 (stereo not shown) [Compound 17]	–
–	–	–	–	29.4	> 10000	88.3	0.065	N#Cc1cnc2c(c1)OC[C@H]1CN(Cc3ccc(Cc4ccc5c6c(cc(F)cc46)C(=O)N5C4CCC(=O)NC4=O)c(F)c3)CCN21 (stereo partly shown) [Compound 10]	–
65.8	772	92.2	1.23	–	–	–	–	N#Cc1ccc(N2CCN(Cc3ccc(Cc4ccc5c6c(cc(Br)cc46)C(=O)N5C4CCC(=O)NC4=O)cc3)CC2)c(F)c1 (stereo not shown) [Compound 16]	–
–	–	–	–	45.4	> 10000	86.3	0.13	O=C1CCC(N2C(=O)c3cc(F)cc4c(Cc5ccc(CN6CCC7(CCCO7)CC6)cc5F)ccc2c34)C(=O)N1 (stereo not shown) [Compound 7]	–
–	–	–	–	33.9	> 10000	66.2	2.19	O=C1CCC(N2C(=O)c3cc(F)cc4c(Cc5ccc(CN6CCC(N7CCOCC7)CC6)cc5F)ccc2c34)C(=O)N1 (stereo not shown) [Compound 11]	–
